For ten compounds, IC50 results are on record in PubChem BioAssay AID743503 (Broad Institute, 2014).

Activity calls are given as the source filed them.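 The calls were made as follows: active = IC50 under 35 µM for lowering the luciferase reporter signal in dopamine receptor counterscreen cells; inactive = IC50 over 35 µM.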

In general, IC50 refers to the concentration needed to halve the response being measured.

In this assay the test system is HEK293 dopamine receptor CRE-luciferase, luminescence. Description: inhibition of dopamine-driven CRE reporter signal – cell-based, HEK293, luminescence, dry powder, set 2, counter-screen for LGR2 antagonist project, dose response (AID 743503). On the technique in general: The purpose of a counterscreen is to sort out artefacts and off-target activity.
With `C[C@H](CO)N1C[C@H](C)[C@H](CN(C)C(=O)Nc2ccc3ccccc3c2)OCCCC[C@H](C)Oc2ccc(NC(=O)C3CCCCC3)cc2C1=O`, the IC50 is > 35 µM (inactive). For `C[C@H](CO)N1C[C@H](C)[C@H](CN(C)C(=O)Nc2ccc(Cl)cc2)OCCCC[C@H](C)Oc2ccc(NC(=O)C3CCCCC3)cc2C1=O` the value was > 35 µM (inactive); for `C[C@H](CO)N1C[C@H](C)[C@H](CN(C)C(=O)Nc2ccc(F)cc2)OCCCC[C@H](C)Oc2ccc(NC(=O)C3CCCC3)cc2C1=O`, > 35 µM (inactive).

In the case of `C[C@H]1CCCCO[C@@H](CN(C)C(=O)Nc2cccc3ccccc23)[C@@H](C)CN([C@@H](C)CO)C(=O)c2cc(NC(=O)C3CCCCC3)ccc2O1`, the IC50 is > 35 µM (inactive).

In the case of `C[C@H](CO)N1C[C@H](C)[C@H](CN(C)C(=O)Nc2cccc(F)c2)OCCCC[C@H](C)Oc2ccc(NC(=O)C3CCCCC3)cc2C1=O`, the IC50 was > 35 µM (inactive). The result for `C[C@H](CO)N1C[C@H](C)[C@H](CN(C)C(=O)Nc2ccccc2F)OCCCC[C@H](C)Oc2ccc(NC(=O)C3CCCCC3)cc2C1=O` reads > 35 µM (inactive). For `C[C@H](CO)N1C[C@H](C)[C@H](CN(C)C(=O)Nc2ccc(F)cc2)OCCCC[C@H](C)Oc2ccc(NC(=O)C3CCCCCC3)cc2C1=O` the value was > 35 µM (inactive); for `Cc1ccc(NC(=O)N(C)C[C@@H]2OCCCC[C@H](C)Oc3ccc(NC(=O)C4CCCCC4)cc3C(=O)N([C@H](C)CO)C[C@@H]2C)cc1`, > 35 µM (inactive); for `C[C@H](CO)N1C[C@H](C)[C@H](CN(C)C(=O)Nc2cccc3ccccc23)OCCCC[C@H](C)Oc2ccc(NC(=O)C3CCCCC3)cc2C1=O`, > 35 µM (inactive).

Regarding `C[C@@H]1CN([C@@H](C)CO)C(=O)c2cc(NC(=O)C3CCCCC3)ccc2O[C@@H](C)CCCCO[C@H]1CN(C)C(=O)Nc1cccc2ccccc12`, the IC50 is > 35 µM (inactive).
